Experimental data: ChEMBL document CHEMBL3039007, “Structure-based identification of OATP1B1/3 inhibitors” (Mol Pharmacol, 2013)

Key:
[1] = biological target: T1, Solute carrier organic anion transporter family member 1B1 (Homo sapiens, UniProt Q9Y6L6); details: chinese hamster, cho, 10 µM
T1 sequence (Q9Y6L6 whole entry): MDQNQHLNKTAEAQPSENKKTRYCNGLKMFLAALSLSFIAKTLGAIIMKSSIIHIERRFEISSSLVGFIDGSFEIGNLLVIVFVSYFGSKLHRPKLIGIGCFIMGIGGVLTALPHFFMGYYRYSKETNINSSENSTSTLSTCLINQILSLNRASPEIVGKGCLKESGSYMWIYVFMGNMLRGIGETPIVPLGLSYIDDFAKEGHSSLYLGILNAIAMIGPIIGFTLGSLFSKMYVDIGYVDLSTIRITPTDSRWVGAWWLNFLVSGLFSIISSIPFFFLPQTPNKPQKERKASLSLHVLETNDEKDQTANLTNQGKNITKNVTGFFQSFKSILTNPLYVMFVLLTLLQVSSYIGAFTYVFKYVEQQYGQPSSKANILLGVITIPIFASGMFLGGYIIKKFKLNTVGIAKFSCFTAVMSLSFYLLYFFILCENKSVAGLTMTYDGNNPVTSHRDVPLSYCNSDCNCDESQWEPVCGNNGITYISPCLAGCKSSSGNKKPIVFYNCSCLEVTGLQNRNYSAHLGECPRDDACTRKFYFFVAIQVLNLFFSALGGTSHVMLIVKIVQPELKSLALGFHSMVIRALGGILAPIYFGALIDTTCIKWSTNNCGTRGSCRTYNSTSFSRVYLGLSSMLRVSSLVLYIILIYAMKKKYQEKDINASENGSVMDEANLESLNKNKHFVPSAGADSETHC

[2] = biological target: T2, Solute carrier organic anion transporter family member 1B3 (Homo sapiens, UniProt Q9NPD5); details: chinese hamster, cho, 10 µM
T2 sequence (Q9NPD5 whole entry): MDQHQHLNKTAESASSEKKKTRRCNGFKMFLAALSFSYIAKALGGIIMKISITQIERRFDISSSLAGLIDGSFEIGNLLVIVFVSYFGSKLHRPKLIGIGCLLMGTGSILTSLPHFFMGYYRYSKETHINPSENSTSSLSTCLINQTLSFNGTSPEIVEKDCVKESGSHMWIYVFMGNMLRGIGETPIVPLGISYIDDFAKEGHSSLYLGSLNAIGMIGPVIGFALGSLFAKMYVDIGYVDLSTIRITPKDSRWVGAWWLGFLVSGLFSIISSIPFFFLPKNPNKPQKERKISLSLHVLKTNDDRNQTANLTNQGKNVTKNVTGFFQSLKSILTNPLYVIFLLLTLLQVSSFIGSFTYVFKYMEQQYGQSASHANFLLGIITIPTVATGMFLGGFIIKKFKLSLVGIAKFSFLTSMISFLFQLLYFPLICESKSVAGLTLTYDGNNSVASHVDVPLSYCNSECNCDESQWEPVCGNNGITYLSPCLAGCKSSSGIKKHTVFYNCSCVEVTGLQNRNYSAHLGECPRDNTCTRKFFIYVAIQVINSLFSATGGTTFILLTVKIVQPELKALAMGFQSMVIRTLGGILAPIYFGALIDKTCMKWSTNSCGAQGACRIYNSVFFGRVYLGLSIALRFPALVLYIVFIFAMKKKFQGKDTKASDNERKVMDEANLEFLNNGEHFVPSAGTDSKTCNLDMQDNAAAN

Structure (SMILES)	residual activity [1]	residual activity [2]
Cc1ccccc1C(OCCN(C)C)c1ccccc1.O=C(O)CC(O)(CC(=O)O)C(=O)O (stereo not drawn) [ORPHENADRINE CITRATE]	87.55%	96.44%
CCOC(=O)c1c(C)cc(O)cc1O [ORSELLINIC ACID, ETHYL ESTER]	116.8%	105.8%
Cc1cc(O)cc(O)c1C(=O)O [ORSELLINIC ACID]	66.07%	86.96%
Cc1ccc(C(C)C)c(O)c1C(=O)O [ORTHOTHYMOTINIC ACID]	75.5%	82.08%
CC(C)=CCc1c2c(c3occ(-c4ccc(O)cc4)c(=O)c3c1O)C=CC(C)(C)O2 [OSAJIN]	112.9%	88.68%
COc1ccc2ccc(=O)oc2c1CC=C(C)C [OSTHOLE]	227.1%	121.3%
C[C@@H]1O[C@@H](O[C@H]2C[C@@H](O)[C@]3(CO)[C@H]4[C@H](O)C[C@]5(C)[C@@H](C6=CC(=O)OC6)CC[C@]5(O)[C@@H]4CC[C@]3(O)C2)[C@H](O)[C@H](O)[C@H]1O [OUABAIN]	108.1%	98.13%
NC(=O)N1c2ccccc2CC(=O)c2ccccc21 [OXCARBAZEPINE]	71.5%	85.1%
CC[S+]([O-])CCSP(=O)(OC)OC (stereo not drawn) [OXDEMETONMETHYL]	116.8%	94.08%
COC(=O)Nc1nc2ccc([S+]([O-])c3ccccc3)cc2[nH]1 (stereo not drawn) [OXFENDAZOLE]	95.15%	114.2%
CCCOc1ccc2nc(NC(=O)OC)[nH]c2c1 [OXIBENDAZOLE]	102.5%	119.5%
Clc1ccc(CO/N=C(\Cn2ccnc2)c2ccc(Cl)cc2Cl)c(Cl)c1.O=[N+]([O-])O [OXICONAZOLE NITRATE]	116%	122.3%
Cl.NCCc1cc(O)c(O)cc1O [OXIDOPAMINE HYDROCHLORIDE]	80.99%	100.5%
CCn1cc(C(=O)O)c(=O)c2cc3c(cc21)OCO3 [OXOLINIC ACID]	55.65%	87.39%
O=C1CCCN1CC#CCN1CCCC1 [OXOTREMORINE]	95.24%	82.72%
COc1ccc(C(=O)c2ccccc2)c(O)c1 [OXYBENZONE]	225.4%	128.4%
Cc1cc(C(C)(C)C)c(O)c(C)c1CC1=NCCN1.Cl [OXYMETAZOLINE HYDROCHLORIDE]	95.6%	104.7%
CCCCC1C(=O)N(c2ccccc2)N(c2ccc(O)cc2)C1=O (stereo not drawn) [OXYPHENBUTAZONE ANHYDROUS]	42.04%	83.15%
CN1CCCN=C1COC(=O)C(O)(c1ccccc1)C1CCCCC1.Cl (stereo not drawn) [OXYPHENCYCLIMINE HYDROCHLORIDE]	92.1%	103.9%
CN(C)[C@@H]1C(O)=C(C(N)=O)C(=O)[C@@]2(O)C(O)=C3C(=O)c4c(O)cccc4[C@@](C)(O)[C@H]3[C@H](O)[C@@H]12 [OXYTETRACYCLINE]	61.86%	95.2%
COc1cc2c(cc1-c1cc3cc4ccoc4cc3oc1=O)OCO2 [PACHYRRIZINE]	139.6%	121.4%
C[C@@]12C[C@@]3(O)O[C@@H](O1)[C@]1(COC(=O)c4ccccc4)[C@H]3C[C@@]12O[C@@H]1O[C@H](CO)[C@@H](O)[C@H](O)[C@H]1O [PAEONIFLORIN]	109.5%	101.8%
COc1ccc(C(C)=O)c(O)c1 [PAEONOL]	121.7%	108.3%
COc1cc2c(cc1OC)-c1cc3ccc(OC)c(OC)c3c[n+]1CC2.[Cl-] [PALMATINE CHLORIDE]	110.1%	97.62%
COc1cc2c(cc1OC)-c1cc3ccc(OC)c(OC)c3c[n+]1CC2 [PALMITINE]	78.6%	102.6%

Structure (SMILES)	residual activity [1]	residual activity [2]
COc1ccnc(C[S+]([O-])c2nc3ccc(OC(F)F)cc3[nH]2)c1OC (stereo not drawn) [PANTOPRAZOLE]	81.37%	79.12%
COc1ccc(Cc2nccc3cc(OC)c(OC)cc23)cc1OC.Cl [PAPAVERINE HYDROCHLORIDE]	266.9%	113.7%
Oc1ccc(Cl)cc1 [PARACHLOROPHENOL]	89.66%	100.4%
N=C1C=CC(=C(c2ccc(N)cc2)c2ccc(N)cc2)C=C1.N=C1C=CC(=C(c2ccc(N)cc2)c2ccc(N)cc2)C=C1.O.O.O=C(O)c1cc2ccccc2c(Cc2c(O)c(C(=O)O)cc3ccccc23)c1O [PARAROSANILINE PAMOATE]	66.86%	144.5%
Cn1c(=O)[nH]c2ncn(C)c2c1=O [PARAXANTHINE]	94.78%	88.58%
C#CCN(C)Cc1ccccc1.Cl [PARGYLINE HYDROCHLORIDE]	99.32%	133.9%
Cl.Cl.Fc1ccc([C@@H]2CCNC[C@H]2COc2ccc3c(c2)OCO3)cc1.Fc1ccc([C@@H]2CCNC[C@H]2COc2ccc3c(c2)OCO3)cc1.O [PAROXETINE HYDROCHLORIDE]	96.74%	76.07%
O=C1C=C2C(=CCOC2O)O1 (stereo not drawn) [PATULIN]	81.5%	79.09%
COc1ccc(-c2cc(=O)c3c(O)c(OC)c(O[C@@H]4O[C@H](CO[C@@H]5O[C@@H](C)[C@H](O)[C@@H](O)[C@H]5O)[C@@H](O)[C@H](O)[C@H]4O)cc3o2)cc1 [PECTOLINARIN]	39.1%	155.8%
CCn1cc(C(=O)O)c(=O)c2cc(F)c(N3CCN(C)CC3)cc21.CS(=O)(=O)O [PEFLOXACIN MESYLATE]	123.1%	95.74%
CC(=O)CC1CCCCN1.Cl (stereo not drawn) [PELLETIERINE HYDROCHLORIDE]	75.96%	95.02%
CC(C)(S)[C@@H](N)C(=O)O [PENICILLAMINE]	100.4%	124%
C=C(C)C1(O)OC(=O)C=C1OC (stereo not drawn) [PENICILLIC ACID]	110.4%	96.2%
CC1(C)S[C@@H]2[C@H](NC(=O)COc3ccccc3)C(=O)N2[C@H]1C(=O)[O-].[K+] [PENICILLIN V POTASSIUM]	91.66%	108.8%
Oc1c(Cl)c(Cl)c(Cl)c(Cl)c1Cl [PENTACHLOROPHENOL]	19.96%	40.68%
CCCC(C)C1(CC)C(=O)NC(=O)NC1=O (stereo not drawn) [PENTOBARBITAL]	94.35%	94.07%
CC(C)=CCOc1c2occc2cc2ccc(=O)oc12 [PENTOSALEN]	222.8%	131.4%
CC(=O)CCCCn1c(=O)c2c(ncn2C)n(C)c1=O [PENTOXIFYLLINE]	77.22%	79.59%
COc1ccc(C(C)=O)c(OC)c1 [PEONOL METHYL ETHER]	105.9%	99.54%
CCCN1C[C@H](CSC)C[C@@H]2c3cccc4[nH]cc(c34)C[C@H]21.CS(=O)(=O)O [PERGOLIDE MESYLATE]	90.15%	85.27%
C1CCC(C(CC2CCCCN2)C2CCCCC2)CC1.O=C(O)/C=C\C(=O)O (stereo not drawn) [PERHEXILINE MALEATE]	68.81%	92.29%
N#Cc1ccc2c(c1)N(CCCN1CCC(O)CC1)c1ccccc1S2 [PERICIAZINE]	132.5%	117.1%
C=C(C)[C@H]1CC=C(C(=O)O)CC1 [PERILLIC ACID (-)]	102.2%	105%
C=C(C)[C@@H]1CC=C(CO)CC1 [PERILLYL ALCOHOL]	84.39%	91.29%
